Results taken from patent US9808527B2, “Methods and compositions for treating HIV infections” (priority 2006, dated 2017).
Entries after “also recorded” stand apart in the source; their conditions may differ. Read-outs that look alike come from different tables or passages of the source.

Columns and labels:
[1] = tested on: HIV-2ROD; assay: MTT assay, MT-2 cells exposed to HIV-2ROD; assay type: cell-based
Procedure: (§1) Drug susceptibility assay. The susceptibility of HIV-1LAI, HIV-2EHO, HIV-2ROD, to various drugs and the cytotoxicity of those drugs was determined by using the MTT assay. Briefly, MT-2 cells (2×10^4/mL) were exposed to 100 TCID50s (50% tissue culture infectious doses) of HIV-1LAI, HIV-2EHO, or HIV-2ROD in the presence or absence of various concentrations of drugs in 96-well microculture plates and were incubated at 37° C. for 7 days. After 100 μL of the medium was removed from each well, 3-(4,5-dimethylthiazol-2-yl)-2,5-diphenyltetrazolium bromide (MTT) solution (10 μL, 7.5 mg/mL in phosphate-buffered saline) was added to each well in the plate, followed by incubation at 37° C. for 4 hours. […] All assays were performed in duplicate or triplicate. To determine the sensitivity of HIV-1Ba-L, HIV-1ERS104 pre, and clinical multi-drug-resistant HIV-1 isolates and different subtypes of HIV-1 isolates to drugs, phytohemagglutinin-activated peripheral blood mononuclear cells (PHA-PBMs; 10^6/mL) were exposed to 50 TCID50 (50% tissue infectious dose) of each HIV-1 isolate and cultured in the presence or absence of various concentrations of drugs in 10-fold serial dilutions in 96-well microtiter culture plates. To determine the drug susceptibility of certain laboratory HIV-1 strains (HIV-1NL4-3), MT-4 cells were used as target cells. MT-4 cells (10^5/mL) were exposed to 100 TCID50 of wild type HIV-1NL4-3 and PI-resistant HIV-1NL4-3 in the presence or absence of various concentrations of drugs and were incubated at 37° C. On day 7 of culture, the supernatant was harvested and the amount of p24 Gag protein was determined by using a fully automated chemiluminescent enzyme immunoassay system (Lumipulse F; Fujirebio Inc., Tokyo, Japan) (22). […] All assays were performed in duplicate or triplicate.
(§2) All assays were conducted in duplicate, and the data shown represent mean values (±1 standard deviations) derived from the results of three independent experiments.

[2] = tested on: 97ZA003 (C-R5); assay: p24 Gag production inhibition, PHA-PBMs, subtype C isolate 97ZA003; assay type: cell-based, HIV-1
Procedure: as §1
(§3) The IC50 values were determined by using PHA-PBMs as target cells and the inhibition of p24 Gag protein production by each drug was used as an endpoint. All assays were conducted in duplicate, and the data shown represent mean values (±1 standard deviations) derived from the results of two or three independent experiments.

[3] = tested on: 92UG029 (A-X4); assay: p24 Gag production inhibition, PHA-PBMs, subtype A isolate 92UG029; assay type: cell-based, HIV-1
Procedure: as §1, §3

[4] = tested on: 92TH019 (E-R5); assay: p24 Gag production inhibition, PHA-PBMs, subtype E isolate 92TH019; assay type: cell-based, HIV-1; conditions: Human immunodeficiency virus 1, read-out: IC50 against 92TH019 (E-R5)
Procedure: as §1, §3

[5] = tested on: HIV-2EHO; assay: MTT assay, MT-2 cells exposed to HIV-2EHO; assay type: cell-based
Procedure: as §1, §2

[6] = tested on: MT-2 cells; assay: Cytotoxicity by MTT assay; assay type: cell-based, Human
Procedure: as §1

[7] = tested on: HIV-1NL4-3; assay: p24 Gag production inhibition, MT-4 cells, wild-type HIV-1NL4-3; assay type: cell-based
Procedure: as §1

[8] = molecular target: T1, CFP- and YFP-tagged HIV-1 protease subunits (Human immunodeficiency virus type 1 group M subtype B, UniProt P12497); assay type: cell-based; conditions: Cos-7 cells; for CFP A/B ratio (CFP fluorescence after/before photobleaching): ratio <1 = dimerization blocked
T1 construct: expressed in transfected cells; host or cells: Cos-7
Procedure: After 72 hr, cultured cells were examined in the FRET-HIV-1 assay system using confocal microscopy Fluoview FV500 confocal laser scanning microscope, and CFP^A/B were determined and plotted. […] The FRET efficiency was determined following acceptor photobleaching as previously described (Bastiaens et al., EMBO 1996; Siegel et al., Science's stke 2000; Firulli et al., Nature genetics, 2005; Szczesna et al., JBC 2003). Dequenching of the donor CFP by selective photobleaching of the acceptor YFP was performed by first obtaining YFP and CFP images at the same focal plane, followed by illuminating for 3 min the same image at wavelength of 488 nm with a laser power set at the maximum intensity to bleach YFP and re-capturing the same CFP and YFP images. The changes in the CFP and YFP fluorescence intensity in the images of selected regions were examined and quantified using Olympus FV500 Image software system. Background values were obtained from the regions where no cells were present and were subtracted from the values for the cells examined in all calculations. For each chimeric protein, the data were obtained from at least three independent experiments. FRET efficiency was determined using the formula: ET=(1−(IDA/ID))×100, where IDA and ID represent the steady-state donor fluorescence in the presence and absence of the acceptor, respectively. Digitized image data obtained from the experiment were prepared for presentation using Photoshop 6.0 (Adobe systems, Mountain View, Calif.). Ratios of intensities of ECFP fluorescence after photobleaching to ECFP fluorescence prior to photobleaching were determined. The ratios of more than 1 indicate that dimerization of CFP- and YFP-tagged protease subunits occurred and those of less than 1 indicate that dimerization was blocked by the test agent.
Generation of FRET-based HIV-1 expression assay. The basic concepts of the intermolecular fluorescence resonance energy transfer (FRET)-based HIV-1-expression assay (FRET-HIV-1 assay) are shown in FIG. 7. Within a plasmid (pHIV-1NL4-3), which encodes a full-length molecular infectious HIV-1 clone, the gene encoding a cyan fluorescent donor protein (CFP) was attached to the downstream end (C-terminus) of the gene encoding an HIV-1 protease subunit through the flexible linker added (five alanines), generating pHIV-1NL4-3/CFP (FIG. 7A). Within the other plasmid (pHIV-1NL4-3), the gene encoding a yellow fluorescent acceptor protein (YFP) was attached to the downstream end of protease-encoding gene in the same manner, generating pHIV-1NL4-3/YFP. Both CFP and YFP were designed to have phenylalanine and proline in the connection with reverse transcriptase so that the protease is cleaved from reverse transcriptase when two subunits dimerize and the dimerized protease acquires enzymatic activity. […] A focused laser beam excitation of CFP (triggered by Helium-Cadmium laser) results in rapid energy transfer to YFP, and most of the fluorescence photons are emitted by YFP (Miyawaki et al. Nature 388(6645):882-887 (1997)). If the dimerization is blocked, the average distance between CFP and YFP becomes larger and the energy transfer rate is decreased and the fraction of photons emitted by YFP is lowered.
In order to interpret the energy transfer efficiency quantitatively, an acceptor photobleaching technique was used, in which the change in CFP emission quenching is measured by comparing the value before and after selectively photobleaching YFP, which prevents problems associated with variable expression levels.

[9] = Human immunodeficiency virus 2, MT2, MT-2 cells, 100 TCID50, MTT assay, read-out: IC50 against HIV-2ROD
[10] = Human immunodeficiency virus 1, PHA-PBMs, p24 Gag production, read-out: IC50 against 97ZA003 (C-R5)
[11] = Human immunodeficiency virus 1, PHA-PBMs, p24 Gag production, read-out: IC50 against 92UG029 (A-X4)
[12] = Human immunodeficiency virus 2, MT2, MT-2 cells, 100 TCID50, MTT assay, read-out: IC50 against HIV-2EHO
[13] = cytotoxicity, MTT assay, MT-2 cells, read-out: CC50
[14] = Human immunodeficiency virus 2, MT2, read-out: IC50 against HIV-2ROD
[15] = Human immunodeficiency virus 2, MT2, read-out: IC50 against HIV-2EHO
[16] = Human immunodeficiency virus 1, MT4, read-out: IC50 against HIV-1NL4-3 (wild type)
[17] = Human immunodeficiency virus 1, MT4, MT-4 cells, 100 TCID50, p24 Gag production, read-out: IC50 against HIV-1NL4-3 (wild type)

Structure (SMILES) | IC50 [1, 9] [nM] | IC50 [2, 10] [nM] | IC50 [3, 11] [nM] | IC50 [4] [nM] | IC50 [5, 12] [nM] | CC50 [6, 13] [nM] | IC50 [1, 14] [nM] | IC50 [5, 15] [nM] | IC50 [7, 16] [nM] | CC50 ([6]; human, 7 days) [nM] | inhibition of protease dimerization ([8]; 1 μM) | CFP A/B ratio (CFP fluorescence after/before photobleaching) ([8]; 1 μM) | inhibition of protease dimerization ([8]; 10 μM) | IC50 [7, 17] [nM] | IC50 ([2]; Human immunodeficiency virus 1, read-out: IC50 against 97ZA003 (C-R5)) [nM] | IC50 ([3]; Human immunodeficiency virus 1, read-out: IC50 against 92UG029 (A-X4)) [nM]
CC(C)CN(C[C@@H](O)[C@H](Cc1ccccc1)NC(=O)O[C@H]1CCOC1)S(=O)(=O)c1ccc(N)cc1 [APV, Amprenavir] | 570 ± 10 | 33 ± 5 | 46 ± 6 | 21 ± 6 | 250 ± 80 | > 100000 |  |  |  |  |  |  |  |  |  | 
COC(=O)N[C@H](C(=O)N[C@@H](Cc1ccccc1)[C@@H](O)CN(Cc1ccc(-c2ccccn2)cc1)NC(=O)[C@@H](NC(=O)OC)C(C)(C)C)C(C)(C)C [ATV, Atazanavir] |  | 3.4 ± 0.1 | 6 ± 2 | 2.7 ± 0.1 |  |  | 13 ± 6 | 5 ± 2 | 4.2 ± 0.4 | 27600 | None | 1.25±0.12 | none of these 4 PIs inhibited protease dimerization |  |  | 
CC(C)CN(CC(O)C(Cc1ccccc1)NC(=O)OC1COC2OCCC12)S(=O)(=O)c1ccc2c(c1)OCO2 (stereo not drawn) [GRL-98065] |  | 0.5 ± 0.1 | 0.5 ± 0.2 | 0.3 ± 0.1 |  |  | 4.5 ± 0.4 | 3.2 ± 0.7 | 0.3 ± 0.2 |  | dimerization was effectively blocked; also recorded: disrupt protease dimerization |  |  |  |  | 
CC(C)(C)NC(=O)[C@@H]1CN(Cc2cccnc2)CCN1C[C@@H](O)C[C@@H](Cc1ccccc1)C(=O)N[C@H]1c2ccccc2C[C@H]1O [IDV, indinavir] | 54 ± 3 | 37 ± 6 | 44 ± 9 | 21 ± 1 | 24 ± 5 | 69800 |  |  |  |  |  |  |  |  |  | 
Cc1cccc(C)c1OCC(=O)N[C@@H](Cc1ccccc1)[C@@H](O)C[C@H](Cc1ccccc1)NC(=O)[C@H](C(C)C)N1CCCNC1=O [LPV, lopinavir] | 4.9 ± 0.8 | 7.3 ± 0.6 | 7 ± 1 | 3.3 ± 0.5 | 2.6 ± 0.8 | > 100000 |  |  |  |  | None |  |  | 31 ± 9 |  | 
Cc1c(O)cccc1C(=O)N[C@@H](CSc1ccccc1)[C@H](O)CN1C[C@H]2CCCC[C@H]2C[C@H]1C(=O)NC(C)(C)C [NFV, Nelfinavir] | 240 ± 9 | 37 ± 7 | 43 ± 6 | 29 ± 4 | 30 ± 6 | 8100 |  |  |  |  | None |  | none of these 4 PIs inhibited protease dimerization | 33 ± 7 |  | 
CC(C)c1nc(CN(C)C(=O)N[C@H](C(=O)N[C@@H](Cc2ccccc2)C[C@H](O)[C@H](Cc2ccccc2)NC(=O)OCc2cncs2)C(C)C)cs1 [RTV, ritonavir] | 260 ± 10 | 39 ± 4 | 71 ± 11 | 30 ± 9 | 210 ± 50 |  |  |  |  |  | None |  |  | 33 ± 2 |  | 
CC(C)(C)NC(=O)[C@@H]1C[C@@H]2CCCC[C@@H]2CN1C[C@@H](O)[C@H](Cc1ccccc1)NC(=O)[C@H](CC(N)=O)NC(=O)c1ccc2ccccc2n1 [SQV, Saquinavir] |  |  |  | 3 ± 0.1 |  | 16400 | 4.3 ± 0.2 | 3 ± 0.4 | 7 ± 2 |  | None | 1.11±0.15 | none of these 4 PIs inhibited protease dimerization |  | 6.7 ± 0.8 | 4.8 ± 0.5
